Experimental data reported in US9914983B2, “Apoptosis-inducing agent” (Nitto Denko Corporation, priority 2012, dated 2018).

Tests used:
Akt2 = Akt2 (Homo sapiens, UniProt P31751); settings: known from literature (Barnett 2005, Lindsley 2005, Zhao 2005); cited from earlier work
Akt3 = Akt3 (Homo sapiens, UniProt Q9Y243); settings: known from literature (Barnett 2005, Lindsley 2005, Zhao 2005); cited from earlier work
Akt1 = Akt1 (Homo sapiens, UniProt P31749); settings: known from literature (Barnett 2005, Lindsley 2005, Zhao 2005); cited from earlier work
Sequence of Akt1 (P31749 whole entry): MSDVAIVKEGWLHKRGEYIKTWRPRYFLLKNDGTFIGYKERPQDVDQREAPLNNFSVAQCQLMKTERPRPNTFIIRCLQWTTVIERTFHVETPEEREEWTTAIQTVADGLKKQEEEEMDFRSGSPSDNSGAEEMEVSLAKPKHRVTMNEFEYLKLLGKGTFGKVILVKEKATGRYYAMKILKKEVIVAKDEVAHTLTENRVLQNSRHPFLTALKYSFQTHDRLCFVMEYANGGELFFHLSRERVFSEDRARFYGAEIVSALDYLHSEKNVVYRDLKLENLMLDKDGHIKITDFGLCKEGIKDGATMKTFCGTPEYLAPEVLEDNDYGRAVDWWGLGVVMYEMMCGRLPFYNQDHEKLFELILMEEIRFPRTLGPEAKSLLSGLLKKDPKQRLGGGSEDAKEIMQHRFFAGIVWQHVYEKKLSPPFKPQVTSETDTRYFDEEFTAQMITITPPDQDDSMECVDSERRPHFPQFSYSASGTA

PANC-1 cells [1] = experiment: Autophagy by western blot of LC3 type I/type II shift in PANC-1 cells; assay type: cell-based; settings: each siRNA 10 nM, 3 days culture, FIG. 6
Protocol: 1×10^6 PANC-1 cells were plated on a 10 cm dish, and culturing was carried out in RPMI 1640, to which 10% FBS and 5% L-glutamine were added, for 24 hours. […] The cells on the dish were washed with ice-cooled PBS, and an ice-cooled Lysis buffer was then added to thus break the cells. The Lysis buffer was prepared by mixing 100 μL of NP-40 Alternative, PROTEIN GRADE® Detergent, 10% Solution, Sterile-Filtered (CALBIOCHEM), 500 μL of 1 M Tris-HCl (pH 7.5), 300 μL of 5 M NaCl, 20 μL of 0.5 M EDTA, and […] of sterile water. The cell lysate was collected using a cell scraper and ice-cooled for 30 minutes. During this process, inversion mixing was carried out every 10 minutes. The solution thus obtained was subjected to centrifugation at 15000 rpm and 4° C. for 15 minutes, and the supernatant was collected, thus giving a cell extract. This cell extract was subjected to western blot analysis. A reaction with a transfer membrane was carried out at 4° C. for 16 hours using anti-LC3B antibody (SIGMA) as a primary antibody. Detection of LC3 molecules was carried out using a chemiluminescent reagent after a reaction with HRP-labeled secondary antibody. Whether or not autophagy was induced was evaluated by a shift to LC3 type I (18 kDa) and type II (16 kDa).

A549 cells = experiment: Cell proliferation (cell counting) after siRNA knockdown in A549 cells; assay type: cell-based; settings: 10 to 50 nM siRNA tested, cell number 4 days after transfection, FIG. 2
Protocol: (§1) 1×10^6 PANC-1 cells were plated on a 10 cm dish, and culturing was carried out in Roswell Park Memorial Institute 1640 (RPMI 1640, Sigma), to which 10% fetal bovine serum (Fetal bovine serum, FBS) and 5% L-glutamine were added, for 18 hours. Culturing conditions were 37° C. and 5% CO2 unless otherwise specified. Furthermore, 1×10^6 A549 cells were plated on a 10 cm dish, and culturing was carried out in Dulbecco's modified Eagle's medium (DMEM, Sigma), to which 10% FBS and 10% L-glutamine were added, for 18 hours. […]
(§2) In order to optimize the concentration of siRNA, a final concentration of 10 to 50 nM of GST-π siRNA or Akt siRNA was added to a dish containing PANC-1 cells or A549 cells flushed with 10 mL of PTI-MEM, culturing was carried out at room temperature for 5 hours, the medium was replaced (RPMI 1640 containing 5% FBS for PANC-1 cells and DMEM containing 10% FBS for A549 cells), and culturing was carried out for 2 hours. […] Subsequently, every 24 hours, the cells were detached by treatment with trypsin and harvested from the dish, and the number of cells was counted.
(§3) In order to test the effect when GST-π siRNA and Akt siRNA are made to act at the same time, a Lipofectamine/siRNA mixed solution in which GST-π siRNA and Akt siRNA were mixed was added to each of the cells in the same way as above, and the number of cells was counted. […]

PANC-1 cells [2] = experiment: Cell morphology / dead cells after siRNA knockdown in PANC-1 cells; assay type: cell-based; settings: double knockdown compared with single
Protocol: 1×10^6 PANC-1 cells were plated on a 10 cm dish, and culturing was carried out in Roswell Park Memorial Institute 1640 (RPMI 1640, Sigma), to which 10% fetal bovine serum (Fetal bovine serum, FBS) and 5% L-glutamine were added, for 18 hours. Culturing conditions were 37° C. and 5% CO2 unless otherwise specified. Furthermore, 1×10^6 A549 cells were plated on a 10 cm dish, and culturing was carried out in Dulbecco's modified Eagle's medium (DMEM, Sigma), to which 10% FBS and 10% L-glutamine were added, for 18 hours. The respective media were replaced, and 2 hours later 20% to 30% confluent PANC-1 or A549 cells were transfected with GST-π siRNA and/or Akt siRNA using Lipofectamine RNAiMAX (Life Technologies).
A Lipofectamine/siRNA mixed solution for transfection was prepared as follows. First, 35 μL of Lipofectamine RNAiMAX and 965 μL of OPTI-MEM (Sigma) were mixed to thus prepare a Lipofectamine solution. […]
as §3

PANC-1 cells [3] = experiment: Cell proliferation (cell counting) after siRNA knockdown in PANC-1 cells; assay type: cell-based; settings: 10 to 50 nM siRNA tested, cell number 4 days after transfection, FIG. 1
Protocol: as §1, §2, §3

Sequence of Akt3 (Q9Y243 whole entry, species assumed): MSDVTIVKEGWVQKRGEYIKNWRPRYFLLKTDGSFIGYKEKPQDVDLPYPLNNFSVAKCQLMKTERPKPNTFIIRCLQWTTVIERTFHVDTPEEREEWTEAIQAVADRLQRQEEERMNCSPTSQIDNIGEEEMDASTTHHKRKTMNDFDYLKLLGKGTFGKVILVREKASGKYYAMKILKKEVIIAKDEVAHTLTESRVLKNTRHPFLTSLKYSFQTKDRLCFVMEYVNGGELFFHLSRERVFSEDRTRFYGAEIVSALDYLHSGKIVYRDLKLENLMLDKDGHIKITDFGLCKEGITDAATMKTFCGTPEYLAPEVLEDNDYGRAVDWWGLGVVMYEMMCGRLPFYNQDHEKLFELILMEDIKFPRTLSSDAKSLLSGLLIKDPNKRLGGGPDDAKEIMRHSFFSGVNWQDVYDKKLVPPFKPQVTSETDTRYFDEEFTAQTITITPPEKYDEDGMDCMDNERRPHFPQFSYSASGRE
Sequence of Akt2 (P31751 whole entry, species assumed): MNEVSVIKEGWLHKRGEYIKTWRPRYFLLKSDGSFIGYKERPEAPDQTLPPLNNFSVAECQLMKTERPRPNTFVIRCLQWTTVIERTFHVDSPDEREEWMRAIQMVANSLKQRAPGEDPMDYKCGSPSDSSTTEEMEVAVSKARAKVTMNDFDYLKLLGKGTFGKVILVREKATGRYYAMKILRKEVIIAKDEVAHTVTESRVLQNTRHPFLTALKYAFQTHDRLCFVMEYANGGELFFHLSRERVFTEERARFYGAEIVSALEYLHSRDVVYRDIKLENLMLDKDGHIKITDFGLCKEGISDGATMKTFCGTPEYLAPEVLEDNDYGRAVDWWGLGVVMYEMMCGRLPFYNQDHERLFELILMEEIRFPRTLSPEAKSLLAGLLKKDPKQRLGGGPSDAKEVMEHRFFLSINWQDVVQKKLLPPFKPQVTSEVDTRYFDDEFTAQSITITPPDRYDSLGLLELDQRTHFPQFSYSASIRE

| Compound | effect on activation and phosphorylation of Akt2 (Akt2) | inhibition of Akt3 (Akt3) | effect on activation and phosphorylation of Akt1 (Akt1) | autophagy (shift of LC3 type I to type II) (PANC-1 cells [1]) | final concentration at which the cell proliferation inhibition effect almost reaches a plateau (A549 cells) [nM] | dead cells (floating cells) (PANC-1 cells [2]) | final concentration at which the cell proliferation inhibition effect almost reaches a plateau (PANC-1 cells [3]) [nM] |
| --- | --- | --- | --- | --- | --- | --- | --- |
| O=c1[nH]c2ccccc2n1C1CCN(Cc2ccc(-c3nc4cc5[nH]cnc5cc4nc3-c3ccccc3)cc2)CC1 [Akt Inhibitor VIII, 1,3-Dihydro-1-(1-((4-(6-phenyl-1H-imidazo[4,5-g]quinoxalin-7-yl)phenyl)methyl)-4-piperidinyl)-2H-benzimidazol-2-one] | selectively blocks activation and phosphorylation | does not inhibit | selectively blocks activation and phosphorylation | – | – | – | – |
| GST-π siRNA: siRNA against GST-π; sense GGGAGGCAAGACCUUCAUUtt (SEQ ID No: 1), antisense AAUGAAGGUCUUGCCUCCCtg (SEQ ID No: 2) (sense GGGAGGCAAGACCUUCAUUTT; antisense AAUGAAGGUCUUGCCUCCCTG; chemistry not given here) | – | – | – | autophagy induced | ~30 | a large number of floating cells (dead cells) | ~30 |
